According to patent publication US6740678B2, “Method of treatment of cardiovascular injuries” (Children's Medical Center Corporation, priority 1998, dated 2004):

Tests used:
Apo E-/-mice [1] = assay: Plaque area at the aortic origin in cholesterol-fed Apo E-/- mice; assay type: in vivo; conditions: for Plaque measurements at the aortic origin versus control: early-stage experiment, treated age 6 to 22 weeks, not shown; for Inhibition of plaque growth: age 20 to 36 weeks, [100][1-(median treated-0.25)/(median control-0.25)]
From the text: Male Apo E-/-mice (Jackson Labs, Bangor Me.) were fed a 0.15% cholesterol diet (Western Type #88137, Teklad) from age 6-8 weeks. At 20 weeks of age, ten animals were sacrificed to evaluate the baseline extent of atherosclerosis.
(§1) After 16 weeks of treatment, animals were euthanized with methoxyflurane. A blood sample was obtained from the right ventricle for the analysis of serum cholesterol, performed by an automated calorimetric assay on a Hitachi 917 instrument (Children's Hospital, Boston, Mass.). The heart and aorta were perfusion-fixed with 2% paraformaldehyde and dissected as described (Palinski, W., et al., Arterioscler. Thromb. 14: 605-16, 1994; Tangirala, R. K., et al., J. Lipid Res. 36:2320-8, 1995). Atherosclerotic plaques in the aortas were used for histology and plaque areas were only determined at the aortic origin (Paigen, B., et al., Artherosclerosis 68: 231-40, 1987). However, to document the extent of disease in the total aorta, the unopened aortas were photographed.
(§2) The effects of these angiogenesis inhibitors on late stage lesions were then compared to their effects on early lesions, in which intimal vessels were rarely observed. Animals were treated with endostatin or TNP-470 from age 32 to 48 weeks (late-stage experiment) or from 6 to 22 weeks (early-stage experiment). Plaque involvement was measured at the aortic origin. Since the aortas from early stage animals were not used for immunohistochemistry in these experiments, the extent of atherosclerosis was also measured in the entire aorta (percent surface area of Sudan IV stained-lesions; Paliniski, W., et al., Arteriosclr. Thromb. 14: 605-16, 1994).
(§3) The Apo E-/-mice received 20 mg/kg of endostatin subcutaneously every day.
The fumagillin analogue TNP-470 was provided for these studies by TAP Holdings, Deerfield Ill. An injection solution of TNP-470 (3 mg/ml) was freshly prepared and mice received 30 mg/kg subcutaneously every other day. Control animals received a similar volume of saline or endostatin buffer.
(§4) Plaque Area. To determine the extent of atherosclerosis at the aortic origin, 40 serial sections (8-10 Tm thickness) of the aortic sinus were collected on 10 slides (Paigen, B., et al., Artherosclerosis 68: 231-40, 1987). Every second slide was stained with hematoxylin and eosin for morphometry. The rest were used for immunohistochemistry to count intimal vessels and determine intimal smooth muscle cell contents. Plaque images were captured at 100× magnification with a Hitachi HV-C20 3CCD digital camera and measured with the Leica Q500MC image analysis program (Dong, Z. M., et al., J. Clin. Invest. 102: 145-52, 1998). Lesion area for each animal was reported as the mean intimal cross-sectional area (mm^2). In the early-stage experiment, plaque involvement in the entire aorta was also measured by image analysis as the percentage of aortic surface area covered with lesions (Tangiala, R. K., et al., J. Lipid. Res. 36: 2320-8, 1995; Dong, Z. M., et al., J. Clin. Invest. 102: 145-52, 1998)

Apo E-/-mice [2] = assay: Intimal smooth muscle cell content of aortic sinus lesions; assay type: in vivo; conditions: median (range), control 20.4
Experimental: Smooth muscle cells were identified with a monoclonal IgG2a antibody against human smooth muscle cell I actin (Dako, M0851; Nakashima, Y., et al, Arteriocler. Thromb. 14: 133-40, 1994). Sections were immersed in 0.1 M sodium citrate, pH 6.0 and heated for 10 minutes in the microwave. Primary antibody was bound to sections at 3 Tg/ml and then visualized with biotinylated anti-mouse IgG2a antibody (1:200 dilution, Amersham RPN1181) and the ABC method described above. The adjacent medial layer of vessels served as positive control.
Intimal smooth muscle cell content. To determine if angiogenesis inhibitor treatments affected smooth muscle cell migration or proliferation in lesions, two slides from the middle of the aortic sinus were stained for smooth muscle cell α actin. For each animal, the number of intimal smooth muscle cells and total cell nuclei were counted in 8 non-overlapping fields. A smooth muscle cell was counted only if it stained for smooth muscle cell α actin and its cell nucleus was seen. The mean percentage of smooth muscle cells relative to total cells was determined for each animal.

Apo E-/-mice [3] = assay: Intimal vessels in aortic sinus plaques by immunohistochemistry (CD31, vWf); assay type: in vivo; conditions: for Neovascularization (+) aortic sinus plaques (number): of 22 (endostatin) and 27 (TNP-470) plaques, control 7 of 24; for Percentage of aortic sinus plaques that contained any intimal vessels: treated mice, control 29%
Experimental: To detect intimal capillaries, the hearts and portions of the descending aorta with substantial lesions were embedded in paraffin, sectioned (10 μm), digested with 0.02% protease XXIV (Sigma) for 6 minutes at room temperature, and incubated with rabbit polyclonal anti-human vWf antibody (Dako, Carpinteria, Calif., 1:500 dilution) or rat monoclonal anti-mouse CD31 antibody (Pharmigen, San Diego, Calif., 20 Tg/ml). When acetone-fixed frozen sections were stained, the CD31 antibody was used at 5 Tg/ml. The bound antibodies against vWf or CD31 were detected with biotinylated goat anti-rabbit or rabbit anti-rat (mouse absorbed) antibodies (Vector, Burlinghame, Calif., 1:250 dilution) and the avidin-biotin peroxidase complex (ABC standard kit, Vector). A red reaction product was produced with 3-amino-9-ethyl carbazole substrate (AEC, Dako) and sections were counterstained with Gill's hematoxylin (Sigma). Vascular sections incubated with non-immune serum served as negative controls. Positive staining of the endothelium on the lumen and in adventitial capillaries served as an internal control. Intimal vessels were identified under high power (400×) and counted when both an endothelial cell nucleus and lumen were seen and when the vessel was also observed in an adjacent section.
as §4

Apo E-/-mice [4] = assay: Plaque cell density of aortic sinus lesions; assay type: in vivo; conditions: aortic sinus plaques, median (range), control 1183
Experimental: Plaque cell density. Cell densities in aortic sinus plaques were evaluated to determine if endostatin or TNP-470 treatments affected lesion cellularity. Cell nuclei in the intima of the aortic sinus plaques were counted at three mid-lesion levels (slides 4, 6, and 8). Cell density was reported as the number of cells per intimal area (cells/mm^2).

[5] = Animal health, weight and tolerability during treatment; assay type: in vivo, mice
Experimental: Animal health and weight was monitored throughout treatment.
as §3

primary tumor growth = conditions: 20 mg/kg per day s.c.; Boehm 1997; cited from earlier work
Apo E-/-mice [6] = assay: Extent of atherosclerosis in the entire aorta (Sudan IV stained lesions, photographed aortas); assay type: in vivo; conditions: for Median percent plaque area of the entire aorta (Sudan IV-positive lesions): early-stage experiment, treated age 6 to 22 weeks, control 14.4%; for Plaque surface area on photographed images of the entire aorta: treated 20 to 36 weeks, not shown
From the text: as §1, §2, §4

angiogenesis = conditions: corneal micropocket assay; Ingber 1990; cited from earlier work
[7] = first experiment, treated age 20 to 36 weeks, endostatin 20 mg/kg s.c. daily, TNP-470 30 mg/kg s.c. every other day, control 0.751, baseline 0.250
[8] = late-stage experiment, treated age 32 to 48 weeks, control 0.584
[9] = second experiment, treated 20 to 36 weeks, control 0.690

Row | Substance | Plaque measurements at the aortic origin versus control (Apo E-/-mice [1]) | Inhibition of plaque growth (Apo E-/-mice [1]; first experiment) [%] | Median plaque area at the aortic origin (Apo E-/-mice [1]; [7]) [mm^2] | Median plaque area at the aortic origin (Apo E-/-mice [1]; [8]) [mm^2] | Median plaque area at the aortic origin (Apo E-/-mice [1]; [9]) [mm^2] | SMC (%), median smooth muscle cell content of aortic sinus lesions (Apo E-/-mice [2]) | Neovascularization (+) aortic sinus plaques (number) (Apo E-/-mice [3]) | Percentage of aortic sinus plaques that contained any intimal vessels (Apo E-/-mice [3]) [%] | Median percent plaque area of the entire aorta (Sudan IV-positive lesions) (Apo E-/-mice [6]) [%] | Plaque surface area on photographed images of the entire aorta (Apo E-/-mice [6]) | other results
1 | endostatin | no difference | 85 | 0.321 | 0.422 | 0.475 | 19.4% | 1 | 5 | 9.6 | noticeable reduction | SMC (%), median smooth muscle cell content of aortic sinus lesions (Apo E-/-mice [2]; listed as Endostatin): 19.4 (16.2-22.7) %; Cell Density, median (Apo E-/-mice [4]): 1645 cells/mm^2; Cell Density, median (Apo E-/-mice [4]; listed as Endostatin): 1646 (962-2361) cells/mm^2; Tolerability of injections ([5]; 20 mg/kg s.c. every day): tolerated the injections; Percentage of animals available for analysis ([5]; mouse, in vivo): 92%; Inhibition of primary tumor growth (primary tumor growth): over 95%
2 | O-chloracetyl-carbamoylfumagillol [TNP-470] | no difference | 70 | 0.402 | 0.448 | 0.370 | 19.8 (14.6-23.5) % | 0 | 0 | 11.7 | noticeable reduction | Percentage of animals available for analysis ([5]; all studies, control 91%): 89%; Weight gained during treatment ([5]; treated age 20 to 36 weeks, control 8 g): 4 g; Median weight after treatment ([5]; treated age 20 to 36 weeks, control 35 g): 31 g; Final weight ([5]; treated age 32 to 48 weeks, control 35 g): 33 g; Inhibition of angiogenesis (angiogenesis): 70%
